Results taken from patent USRE47689E1, “Compounds for treating spinal muscular atrophy” (PTC Therapeutics, Inc., priority 2011, dated 2019).

Columns and labels:
[1] = tested on: Smn protein; assay: Smn protein assay in tissues of adult C/C-allele SMA mice; assay type: in vivo, mouse; settings: brain, spinal cord, muscle, 10 mg/kg orally twice a day for 10 days
Experimental: This Smn protein assay compares tissues from test compound treated mice with those from DMSO vehicle treated mice to determine the increase in levels of Smn protein produced from the human SMN2 gene.
Protocol. The tissue samples in Safe-Lock tubes are weighed and the volume of RIPA buffer containing the protease inhibitor cocktail is added based on the weight to volume ratios for each type of tissue: Brain (50 mg/mL), Muscle (50 mg/mL) and Spinal Cord (25 mg/mL).
Tissues are homogenized using the TissueLyzer by bead milling. 5 mm stainless steel beads are added to the sample and shaken vigorously for 5 minutes at 30 Hz in the TissueLyzer. The samples are then centrifuged for 20 minutes at 14,000×g in a microcentrifuge and the homogenates transferred to the PCR plate. The homogenates are diluted in RIPA buffer to approximately 1 mg/mL for HTRF and approximately 0.5 mg/mL for total protein measurement using the BCA protein assay. For the SMN HTRF assay, 35 μL of the tissue homogenate is transferred to a 384-well plate containing 5 μL of the antibody solution (1:100 dilution of each of the anti-SMNd2 and anti-SMN Kryptate in reconstitution buffer). To provide a control signal, three (3) wells in the plate contain only RIPA Lysis Buffer and, thus, serve as Blank control wells. The plate is centrifuged for 1 minute to bring the solution to the bottom of the wells and then incubated overnight at room temperature. Fluorescence for each well of the plate at 665 nm and 620 nm is measured on an EnVision multilabel plate reader (Perkin-Elmer). The total protein in the tissue homogenate is measured using the BCA assay according to the manufacturer's protocol.
The normalized fluorescence signal is calculated for each sample, Blank and vehicle control well by dividing the signal at 665 nm by the signal at 620 nm. Normalizing the signal accounts for possible fluorescence quenching due to the matrix effect of the tissue homogenate. The ΔF value (a measurement of Smn protein abundance) for each tissue sample well is calculated by subtracting the normalized average fluorescence for the Blank control wells from the normalized fluorescence for each tissue sample well and then dividing this difference by the normalized average fluorescence for the Blank control wells. The ΔF value for each tissue sample well is divided by the total protein quantity (determined using the BCA assay) for that tissue sample. The change in Smn protein abundance for each tissue sample relative to the vehicle control is calculated as the percent difference in the ΔF value of the tissue sample in the presence of the test compound and the averaged ΔF value of the vehicle control signal divided by the averaged ΔF value of the vehicle control signal. […]

[2] = tested on: SMA Δ7 homozygous knockout mice; assay: Righting reflex in neonatal Δ7 SMA mice; assay type: in vivo, mouse; settings: IP QD from PND 3 to day 24, then orally BID, compared to vehicle
Experimental: The functional change in righting reflex of neonatal SMA mice is used to determine whether treatment with a test compound improves righting reflex.
Protocol. SMA Δ7 homozygous knockout mice are dosed intraperitoneally (IP) with test compound or vehicle (100% DMSO) once per day (QD) from postnatal day (PND) 3 until the dose regimen is switched to an oral dose twice per day (BID) in 0.5% hydroxypropylmethyl cellulose (HPMC) with 0.1% Tween-80 at a dose 3.16-fold higher than the dose used for IP. The righting reflex time is measured as the time taken by a mouse to flip over onto its feet after being laid on its back. Righting reflex is measured five times for each mouse (allowing a maximal time of 30 sec for each try) with 5 minutes between each measurement. The righting reflex time for SMA Δ7 homozygous knockout mice treated with test compound or vehicle and age-matched heterozygous mice is measured on PND 10, 14 and 18 and plotted.

| SMILES | Smn protein levels in target tissues compared with heterozygous mice [1] | total protein normalized Smn level relative to the vehicle group [1] | righting reflex [2] |
| --- | --- | --- | --- |
| CC(C)NCCc1ccc2cc(-c3nc4c(Cl)cccc4s3)c(=O)oc2c1 [Cpd 35, 3-(4-chloro-1,3-benzothiazol-2-yl)-7-[2-(propan-2-ylamino)ethyl]-2H-chromen-2-one] | above those observed in the corresponding tissues of the heterozygous mice | increased | improved compared to vehicle treated mice |
| CCN1CCN(c2ccc3cc(-c4cn5cc(C)nc(C)c5n4)c(=O)oc3c2)C[C@@H]1C [Cpd 626, 3-(6,8-dimethylimidazo[1,2-a]pyrazin-2-yl)-7-[(3S)-4-ethyl-3-methylpiperazin-1-yl]-2H-chromen-2-one] | above those observed in the corresponding tissues of the heterozygous mice | increased |  |
